Series [1] deals with BALB/c mice. Briefly: Maximum tolerated dose, body weight reduction as response. The format is in vivo. As to conditions: intravenously. Here is the method: Next, the maximum tolerated dose of salinomycin and salinomycin-loaded PLA based hybrid block copolymeric salinomycin nanoparticle was probed in BALB/c mice. Mice were administered the salinomycin loaded hybrid block copolymeric nanoparticles once a week for 3 weeks. The body weight reduction was observed as a phenotypic response. The dose-response of salinomycin and the salinomycin nanoparticle was observed by administration intraperitoneally (FIG. 7) and intravenously (FIG. 8). For intraperitoneal administration, mice were administered salinomycin and salinomycin loaded nanoparticles at 5 mg/kg, 7.5 mg/kg, 10 mg/kg. Further, only the salinomycin nanoparticles were administered at 12 mg/kg and 15 mg/kg, intraperitoneally. Three mice were probed at each dose for salinomycin and salinomycin loaded nanoparticle. For intravenous administration, mice were administered salinomycin and salinomycin loaded nanoparticles at 5 mg/kg. Only salinomycin nanoparticles were administered at 1 mg/kg, and 7.5 mg/kg. Further another group of salinomycin at 2.5 mg/kg was also tested. Three mice were probed at each dose for salinomycin and salinomycin loaded nanoparticle. It was observed that free salinomycin was tolerated up to a dose of 10 mg/kg and the salinomycin loaded nanoparticle was tolerated up to 15 mg/kg, when administered intraperitoneally. […]

Series [2] has as its system MDA-MB 468 cells. Briefly: Inhibition of cell proliferation. Conditions: Homo sapiens, 5000 cells per well, 0.01-100 μM, 72 hours. The format is cell-based. Here is the method:
(§1) Next, the potency of inhibition of salinomycin-induced cell growth was probed by comparing the inhibition with salinomycin and salinomycin nanoparticle in MCF-7, MDA-MB 231 and MDA-MB 468 cell lines. […] (see FIG. 6A, B, C). MCF-7 cells at concentration of 5000 cells per well were treated with salinomycin or salinomycin nanoparticles from a concentration of 0.01-100 μM respectively for 72 hours. […] MDA-MB 468 cells at concentration of 5000 cells per well were treated with salinomycin or salinomycin nanoparticles from a concentration of 0.01-100 μM respectively for 72 hours. […] MDA-MB 231 cells at concentration of 5000 cells per well were treated with salinomycin or salinomycin nanoparticles from a concentration of 0.01-100 μM respectively for 72 hours.

Series [3] has as its system MCF-7 cells. Briefly: Inhibition of cell proliferation. The format is cell-based. As to conditions: Homo sapiens, MCF7; 5000 cells per well, 0.01-100 μM, 72 hours. Here is the method: as §1
Series [4] has as its system MDA-MB 231 cells. In words: Inhibition of cell proliferation. As to conditions: Homo sapiens, 5000 cells per well, 0.01-100 μM, 72 hours. The format is cell-based. The procedure: as §1

`CC[C@@H](C(=O)[C@@H](C)[C@@H](O)[C@H](C)[C@@H]1O[C@@H]([C@@H](CC)C(=O)O)CC[C@@H]1C)[C@H]1O[C@]2(C=C[C@@H](O)[C@]3(CC[C@@](C)([C@H]4CC[C@](O)(CC)[C@H](C)O4)O3)O2)[C@H](C)C[C@@H]1C` [salinomycin] came in with a lethal dose in series [1] of 5 mg/kg. The 50% inhibitory concentration (IC50) in series [2] came to 1470 nM; in series [3], 2270 nM; in series [4] it was 3460 nM.

The values above are taken from patent publication US20230320996A1, “NANOPARTICLES AND METHODS OF MANUFACTURE THEREOF” (Hillstream BioPharma, Inc., priority 2020, published 2023).
